Data published in US20100152298A1, “Present invention relates to a treatment for the management of cancer more specially the use of Flutamide anti-androgen drugsa” (UNIVERSITY OF KUWAIT, priority 2008, published 2010).

System: androgen-independent prostate cancer PC-3 cells
Experiment: Growth, proliferation and viability of PC-3 cells treated with flutamide
Type: cell-based
Conditions: range of doses of flutamide

Structure (SMILES): CC(C)C(=O)Nc1ccc([N+](=O)[O-])c(C(F)(F)F)c1 [flutamide, Flutamide]
- inhibiting growth: 20-70%
